Experimental data: paper PMC8533149 (Biomolecules, 2021)

Columns and labels:
[1] = system: HIV-1 LTR-III G-quadruplex (FAM/TAMRA-labeled LTR-III); assay: FRET melting assay, LTR-III G4; type: binding; conditions: for LTR III stabilization: Figure 7, stabilization group; for LTR-III (average): Table S12, average stabilization
Outline: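 Melting is followed by FAM fluorescence (ex 495/em 520 nm) while heating at 1 °C/min from 30 to 95 °C. Labelled ODN at 0.5 μM, pre-annealed in 10 mM Li cacodylate, 100 mM KCl, pH 7.4, mixed with ligand at 50:1 (25 μM), or 20:1 and 2:1 for titration. ΔTm is relative to the 0.25% DMSO buffer control.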

[2] = system: dsDNA (double stranded control sequence); assay: FRET melting assay, duplex control; type: binding; conditions: 50:1
Protocol: (§1) To evaluate stabilizing properties of the ligands in a complex with oligodeoxyribonucleotides (ODNs) melting with fluorescence registration was used. ODN (0.5 μM) (Table 1), labeled with 6-carboxyfluorescein (FAM) and 6-carboxytetramethylrhodamine (TAMRA) at the 5′- and 3′-end, respectively, were folded in lithium cacodylate buffer (10 mM, pH 7.4) with 100 mM KCl by heating at 95 °C for 5 min and gradually cooling to r.t. GFP chromophore analogs (5 mM solution in DMSO) were diluted with the same buffer to the final concentration of 25 μM and mixed with an equal volume of 0.5 μM ODN solution resulting in a molar ratio of 50:1 (total volume was 50 μL). For the titration experiments molar ratios of 20:1 and 2:1 were used. Samples were analyzed using DTprime qPCR system (DNA-Technology LLC, Moscow, Russia). Fluorescence was registered by detection of FAM emission at 520 nm upon excitation at 495 nm in the temperature range of 30–95 °C with 1 °C/min gradient. Tm was determined using the instrument software and ΔTm was calculated relative to ODN Tm in a buffer solution containing 0.25% (v/v) DMSO. The primary and secondary screening were carried out in singlicate and triplicate, respectively.
(§2) Initially we screened an in-house library of 440 synthetic GFP chromophore analogues for interaction with HIV-1 LTR-III sequence, which modulates HIV-1 promoter activity, using high-throughput screening (HTS) FRET melting assay (Table S1). […] We selected 11 compounds (Figure 2A), displaying stabilization in the range of 2.4–7.8 °C, and evaluated their ability to stabilize other G4-forming sequences, including human telomeric sequence Telo (one of the most common G4 structures in the human genome, having two conformations, Hybrid-1 and Hybrid-2 [36]) and model G4 […] (the G-rich Pu39 region of the P1 promoter of the oncogene BCL-2, an apoptosis regulator [37] with polymorphic conformational structure), as well as double stranded oligonucleotide (duplex) control sequence (Figure 2B, Table S2).

[3] = system: Pu39 G4 (G-rich region of the P1 promoter of BCL-2); assay: FRET melting assay, Pu39; type: binding, human; conditions: 50:1
Protocol: as §1, §2

[4] = system: human telomeric sequence Telo G4; assay: FRET melting assay, Telo; type: binding; conditions: 50:1
Protocol: as §1, §2

[5] = system: MT4 cells; assay: Cytotoxicity test; type: cell-based; conditions: Table S12, nine days
Protocol: (§3) Green monkey kidney (Vero, Beach, FL, USA) cell line was maintained in 2 × Eagle MEM (“Chumakov FSC R&D IBP RAS”, Russia) with 5% FBS with L-glutamine, penicillin and streptomycin. […] HIV-1 strain NL4-3 was obtained via cell transfection with pNL4-3 3 (ARP2006, NIBSC, Potters Bar, UK).
(§4) MT4 cell suspensions were added to the wells with compound dilutions and DMSO control (approx. 2 × 10^4 cells per well). […] All experimental procedures were performed in two replicates and were repeated two to four times. Mean and SD were calculated with OriginPro 8 (OriginLab, St. Louis, MO, USA).

[6] = Cytotoxicity test; type: cell-based; conditions: human, MT4 cells (human T cell leukemia), Figure 7
Protocol: as §3, §4

[7] = Table S1 primary screening, ligand:ODN 50:1, singlicate
[8] = Table S2, primary screening lead compounds
[9] = LTR-III G4/ligand molar ratio 1:20
[10] = LTR-III G4/ligand molar ratio 1:50
[11] = Table S3 primary screening of newly synthesized analogs, 50:1
[12] = Table S5, newly synthesized compounds

Row | SMILES | LTR III stabilization [1] | LTR-III ΔTm [1, 7] | LTR-III (average) [1] | ΔTm Duplex [2, 8] | ΔTm Pu39 [3, 8] | ΔTm Telo [4, 8] | СС50 (MT4) [5] | CC50 at 9 days [6] | ΔTm LTR III ([1]; Table S2, primary screening lead compounds, 50:1) | ΔTm, titration [1, 9] | ΔTm, titration [1, 10] | LTR-III ΔTm [1, 11] | ΔTm Duplex [2, 12] | ΔTm Pu39 [3, 12] | ΔTm Telo [4, 12] | ΔTm, titration ([1]; LTR-III G4/ligand molar ratio 1:2)
1 | COc1cc(/C=C2N=C(/C=C/c3cc(Cl)nc(Cl)c3)N(C)C\2=O)cc(OC)c1O [N 960a] | > 3 °C | 5.3 °C | 5,2 °C | -0.5±0.07 °C | 0.5±0.01 °C | 1±0.7 °C | > 25 µM | > 25 µM |  |  |  |  |  |  |  | 
2 | COc1cc(O)ccc1/C=C1N=C(/C=C/c2ccnc3ccccc23)N(C)C\1=O [ZS 331] | > 3 °C |  | 3,7 °C | -0.2±0.1 °C | 0.8±0.2 °C | 2.5±0.3 °C | 1.17 ± 0.55 µM | 1.2 ± 0.6 µM | 3.3±0.2 °C |  |  |  |  |  |  | 
3 | COc1cc(/C=C2N=C(/C=C/c3ccncc3)N(C)C\2=O)cc(OC)c1O [N 908] |  | 2.4 °C |  | 0±0.04 °C | -0.7±0.2 °C | 0.1±0.1 °C |  |  |  |  |  |  |  |  |  | 
4 | COc1ccc(/C=C2\N=C(CC(C)C)C(=O)N(O)C2=O)cc1 [M 813] |  | 2.9 °C | 1,65 °C | 0±0.04 °C | -1.5±1 °C | -0.6±0.9 °C | 0.46 ± 0.16 µM | 0.5 ± 0.2 µM |  |  |  |  |  |  |  | 
5 | COc1c(O)ccc(/C=C2N=C(/C=C/c3ccnc4ccccc34)N(C)C\2=O)c1OC [N1197] | > 3 °C |  | 11,3 °C |  |  |  | 1.66 ± 0.79 µM | 1.7 ± 0.8 µM |  | 8.5±0.3 °C | 11.4±0.2 °C | 11.3 °C | -0.4±0.2 °C | 7±0.7 °C | 4.6±0.2 °C | 
6 | CN1C(=O)/C(=C/c2cc[n+](C)cc2)N=C1c1ccccc1 [M 903.2] |  | 2.8 °C | 2,3 °C | 0.1±0.07 °C | -1±0.5 °C | 0.4±0.1 °C | > 25 µM | > 25 µM |  |  |  |  |  |  |  | 
7 | CCNc1ccc(/C=C2\N=C(C)N(C)C2=O)cc1 [N 683.1] | > 3 °C | 5 °C | 3,1 °C | 0±0.04 °C | 1.4±0.6 °C | -0.1±0.04 °C | > 25 µM | > 25 µM |  |  |  |  |  |  |  | 
8 | COc1ccc(OC)c(/C=C2N=C(/C=C/c3ccncc3)N(C)C\2=O)c1 [N 848.2] | > 3 °C | 2.6 °C | 3,2 °C | 0.4±0.04 °C | 0.1±0.4 °C | 2.1±0.01 °C | 6.4 ± 1.8 µM | 6 ± 2 µM |  |  |  |  |  |  |  | 
9 | COc1ccc(O)c(/C=C2N=C(/C=C/c3ccncc3)N(C)C\2=O)c1 [N 848.3] | > 3 °C | 2.9 °C | 3,3 °C | 0.1±0.09 °C | 0.7±0.3 °C | 1.1±0.2 °C | 5.5 ± 2.2 µM | 6 ± 2 µM |  |  |  |  |  |  |  | 
10 | COc1cc(/C=C2N=C(/C=C/c3ccnc4ccccc34)N(C)C\2=O)cc(OC)c1O [N1196] | > 3 °C |  |  |  |  |  | > 25 µM | > 25 µM |  | 7.9±0.4 °C | 11.3±0.3 °C | 11.7 °C | 0.5±0.1 °C | 7.2±0.4 °C | 8.7±0.2 °C | 
11 | COc1cc(/C=C2N=C(/C=C/c3cc(OC)c(O)c(OC)c3)N(C)C\2=O)cc(OC)c1O [N1193] | > 3 °C |  | 14 °C |  |  |  | 2.3 ± 1.1 µM | 2 ± 1 µM |  | 9.1±0.6 °C | 13.1±0.2 °C | 14 °C | 0.6±0.1 °C | 3.8±0.04 °C | 9.5±0.1 °C | 2.4±0.6 °C
